Data set [1] relates to KB tumor. Briefly: In vivo biodistribution in mice bearing KB tumors.
Data set [2] relates to FR-positive M109 tumor. Briefly: In vivo biodistribution in mice bearing M109 tumors. From the text:
Four- to eight-week-old female nu/nu mice or NSG mice (Harlan Sprague-Dawley, Inc.) were maintained on a standard 12-h light-dark cycle and fed ad libitum with Folate deficient purified rodent diet (TestDiet #AIN-93G) for the duration of the experiment. FR-positive M109 or FR-negative HT29 tumor cells were inoculated in the subcutis dorsal medial area of mice. The biodistribution studies were typically performed when tumors were approximately 400-800 mm^3 in volume. Mice were divided into groups of three, and freshly prepared test articles and competitors were injected through the lateral tail vein in a volume of 100 μL/10 g of PBS. Four h to six days post radioactive-agent dose administration, mice were euthanized and organs (blood, heart, lungs, liver, spleen, and kidneys, intestine, stomach, muscle, brain and tumor) were collected, weighed and placed inside counting vials. Each tissue sample was counted for the activities of radioelement using a gamma-counter. Samples of the injectate were used as decay correction standards. Final bar graphs are expressed as % injected dose per gram of tissue or tumor to kidney ratio, or % tumor to (kidneys+liver+spleen) ratio.

Molecules are shown by their SMILES. *1 amine or outer side, *2 acyl side, *3 side chain or, on linkers, in order; H or OH if unused. Where a SMILES comes first, the peptide text is derived from it. [ ]: non-standard residue; d: D form. The star is where a group is joined. NH(1-deoxy-D-glucityl) = OC[C@@H](O)[C@@H](O)[C@H](O)[C@@H](O)CN*; DOTA = O=C(O)CN1CCN(CC(=O)O)CCN(CC(=O)*)CCN(CC(=O)O)CC1; Pteroyl = Nc1nc2ncc(CNc3ccc(C(=O)*)cc3)nc2c(=O)[nH]1; γGlu = O=C(O)[C@H](CCC(=O)[*:2])N[*:1]; βAsp = O=C(O)[C@H](CC(=O)[*:2])N[*:1]; Dap = NC[C@H](N)C(=O)O

`Nc1nc2ncc(CNc3ccc(C(=O)NCCCC[C@H](NC(=O)CNC(=O)CN4CCN(CC(=O)O)CCN(CC(=O)O)CCN(CC(=O)O)CC4)C(=O)O)cc3)nc2c(=O)[nH]1` [Compound 45, DOTA-Gly-Lys(Pte)-OH]: in data set [1] (177Lu chelate, 200 nmol/kg), the T/Kid is listed as 0.16 +/− 0.01, the T/Liv was 6.8 +/− 1.1, the T/spl was 50.7 +/− 24.0 and the “T^2/kid” value is 0.64 +/− 0.19.
`Nc1nc2ncc(CNc3ccc(C(=O)N[C@@H](Cc4ccc(OCC(=O)NCCNC(=O)CN5CCN(CC(=O)O)CCN(CC(=O)O)CCN(CC(=O)O)CC5)cc4)C(=O)O)cc3)nc2c(=O)[nH]1` [Compound 61, Pte-Tyr(OCH2CO-EDA-DOTA)-OH]: in data set [2] (177Lu chelate, 300 nmol/kg), the T/Kid was 0.27 +/− 0.03, the T/Liv was 8.6 +/− 3.9, the T/spl is given as 40.3 +/− 18.7 and the “T^2/kid” value is recorded as 1.05 +/− 0.28.
On the same counts, the results for `CSCC[C@H](NC(=S)Nc1ccc(CC2CN(CC(=O)O)CCN(CC(=O)O)CCN(CC(=O)O)CCN2CC(=O)O)cc1)C(=O)N[C@H](C(=O)N[C@@H](CCCCN1C(=O)CC(SC[C@@H](NC(=O)[C@H](CC(=O)O)NC(=O)[C@H](CC(=O)O)NC(=O)[C@H](CCCNC(=N)N)NC(=O)[C@H](CC(=O)O)NC(=O)CC[C@H](NC(=O)c2ccc(NCc3cnc4nc(N)[nH]c(=O)c4n3)cc2)C(=O)O)C(=O)O)C1=O)C(=O)O)C(C)C` (stereo partly drawn) [Compound 58, DOTA-Bn-NHC(S)NH-Met-Val-Lys(Mal-S-Cys-Asp-Asp-Arg-Asp-Folate)-OH] are 0.59 +/− 0.12, 28.8 +/− 2.9, 83.1 +/− 17.3 and 0.59 +/− 0.16.
In the case of `Nc1nc2ncc(CNc3ccc(C(=O)N[C@@H](CCC(=O)NC[C@H](N)C(=O)N[C@@H](CC(=O)O)C(=O)N[C@@H](CSC4CC(=O)N(CCNC(=O)CN5CCN(CC(=O)O)CCN(CC(=O)O)CCN(CC(=O)O)CC5)C4=O)C(=O)O)C(=O)O)cc3)nc2c(=O)[nH]1` (stereo partly shown) [Compound 25], in data set [1] (225Ac chelate, 30 nmol/kg), the T/Kid is 0.07 +/− 0.03, the T/Liv is 3.3 +/− 1.8 and the T/spl is 15.8 +/− 5.9.
For the compound `Nc1nc2ncc(CNc3ccc(C(=O)N[C@@H](CCCCNC(=O)C[C@H](NC(=O)[C@H](Cc4ccc(Br)cc4)NC(=O)CNC(=O)CN4CCN(CC(=O)O)CCN(CC(=O)O)CCN(CC(=O)O)CC4)C(=O)O)C(=O)O)cc3)nc2c(=O)[nH]1` [Compound 43, Pte-Lys(β-Asp-4-Br-Phe-Gly-DOTA)-OH], in data set [2] (177Lu chelate, 300 nmol/kg), the T/Kid is listed as 0.58 +/− 0.10, the T/Liv is on record as 13.0 +/− 3.7, the T/spl is listed as 70.2 +/− 6.7 and the “T^2/kid” value was 1.57 +/− 0.53.
Regarding `Nc1nc2ncc(CNc3ccc(C(=O)N[C@@H](CCCCNC(=O)C[C@H](NC(=O)[C@H](Cc4ccc5ccccc5c4)NC(=O)[C@H](Cc4ccc5ccccc5c4)NC(=O)CN4CCN(CC(=O)O)CCN(CC(=O)O)CCN(CC(=O)O)CC4)C(=O)O)C(=O)O)cc3)nc2c(=O)[nH]1` [Compound 42, Pte-Lys(β-Asp-2-Nal-2-Nal-DOTA)-OH], in data set [2] (177Lu chelate, 300 nmol/kg), the T/Kid is recorded as 0.49 +/− 0.16, the T/Liv was 17.3 +/− 4.9, the T/spl is 84.4 +/− 10.4 and the “T^2/kid” value was 1.64 +/− 0.62.
In the same order, the values of `Nc1nc2ncc(CNc3ccc(C(=O)N[C@@H](CCCCNC(=O)COc4ccc(C[C@H](NC(=O)CN5CCN(CC(=O)O)CCN(CC(=O)O)CCN(CC(=O)O)CC5)C(=O)O)cc4)C(=O)O)cc3)nc2c(=O)[nH]1` [Compound 38, Pte-Lys(DOTA-Tyr(O-carbonylmethyl)-OH)—OH] are 0.46 +/− 0.03, 10.5 +/− 2.9, 69.9 +/− 7.9 and 1.28 +/− 0.11.
As to `Nc1nc2ncc(CNc3ccc(C(=O)N[C@@H](CC(=O)N[C@@H](CCC(=O)NC[C@H](O)[C@@H](O)[C@H](O)[C@H](O)CO)C(=O)N[C@@H](CCC(=O)NC[C@H](O)[C@@H](O)[C@H](O)[C@H](O)CO)C(=O)N[C@@H](CCC(=O)NC[C@H](O)[C@@H](O)[C@H](O)[C@H](O)CO)C(=O)N[C@@H](CNC(=O)CN4CCN(CC(=O)O)CCN(CC(=O)O)CCN(CC(=O)O)CC4)C(=O)O)C(=O)O)cc3)nc2c(=O)[nH]1` [Compound 11] ({Pteroyl-βAsp}-E(NH(1-deoxy-D-glucityl))E(NH(1-deoxy-D-glucityl))E(NH(1-deoxy-D-glucityl))[Dap](DOTA)-OH), in data set [2] (111In chelate, 100 nmol/kg), the T/Kid is recorded as 0.19 +/− 0.01, the T/Liv is on record as 5.7 +/− 1.5, the T/spl is given as 28.0 +/− 31^ and the “T^2/kid” value is on record as 1.0 +/− 0.14.
Consider `Nc1nc2ncc(CNc3ccc(C(=O)N[C@@H](CCCCNC(=O)[C@H](Cc4ccc5ccccc5c4)NC(=O)[C@H]4CC[C@H](CNC(=O)CCC(C(=O)O)N5CCN(CC(=O)O)CCN(CC(=O)O)CCN(CC(=O)O)CC5)CC4)C(=O)O)cc3)nc2c(=O)[nH]1` (stereo partly shown) [Compound 26], for which, in data set [1] (225Ac chelate, 30 nmol/kg), the T/Kid is 0.08 +/− 0.02, the T/Liv was 3.3 +/− 1.1 and the T/spl is on record as 20.4 +/− 5.6.
In the case of `Nc1nc2ncc(CNc3ccc(C(=O)N[C@@H](Cc4ccc(OCCNC(=O)CN5CCN(CC(=O)O)CCN(CC(=O)O)CCN(CC(=O)O)CC5)cc4)C(=O)O)cc3)nc2c(=O)[nH]1` [Compound 64, Pte-Tyr(OCH2CH2—NH-DOTA)-OH], in data set [2] (177Lu chelate, 300 nmol/kg), the T/Kid was 0.38 +/− 0.07, the T/Liv is listed as 14.6 +/− 2.0, the T/spl was 85.5 +/− 7.7 and the “T^2/kid” value is 1.48 +/− 0.51.
Regarding `Nc1nc2ncc(CNc3ccc(C(=O)N[C@@H](CNC(=O)C[C@H](NC(=O)CN4CCN(CC(=O)O)CCN(CC(=O)O)CCN(CC(=O)O)CC4)C(=O)O)C(=O)O)cc3)nc2c(=O)[nH]1` [Compound 20], in data set [2] (177Lu chelate, 100 nmol/kg), the T/Kid is reported as 0.21 +/− 0.01, the T/Liv is recorded as 4.6 +/− 2.1, the T/spl was 16.4 +/− 1.9 and the “T^2/kid” value was 1.5 +/− 0.3.
Turning to `Nc1nc2ncc(CNc3ccc(C(=O)N[C@@H](CCCCNC(=O)COc4ccc(C[C@H](NC(=O)COc5ccc(C[C@H](NC(=O)CN6CCN(CC(=O)O)CCN(CC(=O)O)CCN(CC(=O)O)CC6)C(=O)O)cc5)C(=O)O)cc4)C(=O)O)cc3)nc2c(=O)[nH]1` [Compound 39, Pte-Lys(DOTA-(Tyr(O-carbonylmethyl)-OH)2)—OH], in data set [2] (177Lu chelate, 300 nmol/kg), the T/Kid is 0.57 +/− 0.22, the T/Liv is recorded as 17.1 +/− 6.4, the T/spl is reported as 83.8 +/− 29.7 and the “T^2/kid” value is reported as 1.68 +/− 0.59.
`Nc1nc2ncc(CNc3ccc(C(=O)NCCCC[C@H](NC(=O)CN4CCN(CC(=O)O)CCN(CC(=O)O)CCN(CC(=O)O)CC4)C(=O)O)cc3)nc2c(=O)[nH]1` [Compound 46, DOTA-Lys(Pte)-OH]: in data set [1] (177Lu chelate, 200 nmol/kg), the T/Kid is on record as 0.19 +/− 0.03, the T/Liv is reported as 6.3 +/− 1.9, the T/spl is given as 66.9 +/− 30.8 and the “T^2/kid” value is given as 0.84 +/− 0.32.
Take `Nc1nc(O)c2nc(CNc3ccc(C(=O)N[C@@H](CCC(=O)NCCNC(=O)CCC(C(=O)O)N4CCN(CC(=O)O)CCN(CC(=O)O)CCN(CC(=O)O)CC4)C(=O)O)cc3)cnc2n1` (stereo partly shown) [Compound 28]: in data set [2] (111In chelate, 100 nmol/kg), the T/Kid is reported as 0.098 +/− 0.003, the T/Liv is 1.2 +/− 0.1, the T/spl was 2.1 +/− 0.3 and the “T^2/kid” value was 0.03 +/− 0.001.
As to `CSCC[C@H](NC(=O)CN1CCN(CC(=O)O)CCN(CC(=O)O)CCN(CC(=O)O)CC1)C(=O)N[C@H](C(=O)N[C@@H](CCCCNC(=O)C[C@H](NC(=O)c1ccc(NCc2cnc3nc(N)[nH]c(=O)c3n2)cc1)C(=O)O)C(=O)O)C(C)C` [Compound 54, Pte-Asp(DOTA-Met-Val-ε-Lys-OH)—OH], in data set [2] (177Lu chelate, 200 nmol/kg), the T/Kid was 0.23 +/− 0.03, the T/Liv is given as 9.0 +/− 0.9, the T/spl is listed as 56.4 +/− 6.2 and the “T^2/kid” value is on record as 0.76 +/− 0.12.
In the same order, the values of `Nc1nc2ncc(CNc3ccc(C(=O)N[C@@H](CNC(=O)CNC(=O)CN4CCN(CC(=O)O)CCN(CC(=O)O)CCN(CC(=O)O)CC4)C(=O)O)cc3)nc2c(=O)[nH]1` [Compound 68, Pte-Dap(Gly-DOTA)-OH] are 0.29 +/− 0.08, 10.1 +/− 3.2, 55.6 +/− 17.1 and 1.37 +/− 0.73.
In the case of `Nc1nc2ncc(CNc3ccc(C(=O)N[C@@H](CC(=O)NCCCC[C@H](NC(=O)CNC(=O)CN4CCN(CC(=O)O)CCN(CC(=O)O)CCN(CC(=O)O)CC4)C(=O)O)C(=O)O)cc3)nc2c(=O)[nH]1` [Compound 51, Pte-Asp(DOTA-Gly-ε-Lys-OH)—OH], in data set [1] (177Lu chelate, 200 nmol/kg), the T/Kid is 0.32 +/− 0.09, the T/Liv is 11.0 +/− 2.3, the T/spl is recorded as 54.8 +/− 11.3 and the “T^2/kid” value is recorded as 1.35 +/− 0.54.
As to `Nc1nc2ncc(CNc3ccc(C(=O)N[C@@H](CCC(=O)N[C@@H](CCC(=O)NC[C@H](O)[C@@H](O)[C@H](O)[C@H](O)CO)C(=O)N[C@@H](CCC(=O)NC[C@H](O)[C@@H](O)[C@H](O)[C@H](O)CO)C(=O)N[C@@H](CCC(=O)NC[C@H](O)[C@@H](O)[C@H](O)[C@H](O)CO)C(=O)N[C@@H](CNC(=O)CN4CCN(CC(=O)O)CCN(CC(=O)O)CCN(CC(=O)O)CC4)C(=O)O)C(=O)O)cc3)nc2c(=O)[nH]1` [Compound 13] ({Pteroyl-γGlu}-E(NH(1-deoxy-D-glucityl))E(NH(1-deoxy-D-glucityl))E(NH(1-deoxy-D-glucityl))[Dap](DOTA)-OH), in data set [2] (111In chelate, 100 nmol/kg), the T/Kid is given as 0.22 +/− 0.06, the T/Liv is reported as 6.4 +/− 1.5, the T/spl is on record as 31.9 +/− 7.6 and the “T^2/kid” value was 1.7 +/− 1.1.

(Values after patent US20240252693A1, “FOLATE RECEPTOR-TARGETED RADIOTHERAPEUTIC AGENTS AND THEIR USE” (Novartis AG, priority 2021, published 2024).)
